{"source": "the supplement of paper PMC10307832", "assay_in_all_cases": "relative viability (nuclei count vs DMSO), 5 days (fraction); higher = more cells survive", "key": {"[1]": {"test_system": "NCI-H2170", "in_short": "(§1)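 Lung cancer cell lines in 1536-well plates got either a single drug or a fixed anchor-drug dose together with five library-drug doses (not always all listed) in √10 steps, by pin tool, on the day after seeding. Nuclei were counted after 5 days, and relative viability is the treated-to-vehicle ratio of nuclei counts. Values are medians of duplicate plates.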"}, "[2]": {"test_system": "HARA", "in_short": "as §1"}, "[3]": {"test_system": "LK-2", "in_short": "as §1"}, "[4]": {"test_system": "NCI-H460", "in_short": "as §1"}, "[5]": {"test_system": "ABC-1", "in_short": "as §1"}, "[6]": {"test_system": "NCI-H3122", "in_short": "as §1"}, "[7]": {"test_system": "HCC-366", "in_short": "as §1"}, "[8]": {"test_system": "NCI-H661", "in_short": "as §1"}, "[9]": {"test_system": "CAL-12T", "in_short": "as §1"}, "[10]": {"test_system": "201T", "in_short": "as §1"}, "[11]": {"test_system": "NCI-H1650", "in_short": "as §1"}, "[12]": {"test_system": "NCI-H1437", "in_short": "as §1"}, "[13]": {"test_system": "NCI-H727", "in_short": "as §1"}, "[14]": {"test_system": "PC-14", "in_short": "as §1"}, "[15]": {"test_system": "BEN", "in_short": "as §1"}, "[16]": {"test_system": "LOU-NH91", "in_short": "as §1"}, "[17]": {"test_system": "EKVX", "in_short": "as §1"}, "[18]": {"test_system": "COR-L 105", "in_short": "as §1"}, "[19]": {"test_system": "NCI-H2009", "in_short": "as §1"}, "[20]": {"test_system": "NCI-H1666", "in_short": "as §1"}}}
{"smiles": "O=c1cc(N2CCOCC2)oc2c(-c3cccc4c3sc3ccccc34)cccc12", "note": "+ CS(=O)(=O)CCNCc1ccc(-c2ccc3ncnc(Nc4ccc(OCc5cccc(F)c5)c(Cl)c4)c3c2)o1 [Lapatinib] (partner 2 µM)", "values": [{"measurement": "relative viability", "setting": "[1]; first compound 0.01 µM", "value": 0.241}, {"measurement": "relative viability", "setting": "[1]; first compound 0.03162 µM", "value": 0.25}, {"measurement": "relative viability", "setting": "[1]; first compound 0.1 µM", "value": 0.253}, {"measurement": "relative viability", "setting": "[1]; first compound 0.3162 µM", "value": 0.285}, {"measurement": "relative viability", "setting": "[1]; first compound 1 µM", "value": 0.274}, {"measurement": "relative viability", "setting": "[2]; first compound 0.01 µM", "value": 0.547}, {"measurement": "relative viability", "setting": "[2]; first compound 0.03162 µM", "value": 0.756}, {"measurement": "relative viability", "setting": "[2]; first compound 0.1 µM", "value": 0.702}, {"measurement": "relative viability", "setting": "[2]; first compound 0.3162 µM", "value": 0.797}, {"measurement": "relative viability", "setting": "[2]; first compound 1 µM", "value": 0.665}, {"measurement": "relative viability", "setting": "[3]; first compound 0.01 µM", "value": 0.832}, {"measurement": "relative viability", "setting": "[3]; first compound 0.03162 µM", "value": 0.986}, {"measurement": "relative viability", "setting": "[3]; first compound 0.1 µM", "value": 1.12}, {"measurement": "relative viability", "setting": "[3]; first compound 0.3162 µM", "value": 0.909}, {"measurement": "relative viability", "setting": "[3]; first compound 1 µM", "value": 1.07}, {"measurement": "relative viability", "setting": "[4]; first compound 0.01 µM", "value": 0.926}, {"measurement": "relative viability", "setting": "[4]; first compound 0.03162 µM", "value": 1.07}, {"measurement": "relative viability", "setting": "[4]; first compound 0.1 µM", "value": 1.09}, {"measurement": "relative viability", "setting": "[4]; first compound 0.3162 µM", "value": 0.807}, {"measurement": "relative viability", "setting": "[4]; first compound 1 µM", "value": 1.11}, {"measurement": "relative viability", "setting": "[5]; first compound 0.01 µM", "value": 1.07}, {"measurement": "relative viability", "setting": "[5]; first compound 0.03162 µM", "value": 1.07}, {"measurement": "relative viability", "setting": "[5]; first compound 0.1 µM", "value": 1.6}, {"measurement": "relative viability", "setting": "[5]; first compound 0.3162 µM", "value": 1.04}, {"measurement": "relative viability", "setting": "[5]; first compound 1 µM", "value": 1.2}, {"measurement": "relative viability", "setting": "[6]; first compound 0.01 µM", "value": 1.04}, {"measurement": "relative viability", "setting": "[6]; first compound 0.03162 µM", "value": 0.961}, {"measurement": "relative viability", "setting": "[6]; first compound 0.1 µM", "value": 1.03}, {"measurement": "relative viability", "setting": "[6]; first compound 0.3162 µM", "value": 0.953}, {"measurement": "relative viability", "setting": "[6]; first compound 1 µM", "value": 0.97}, {"measurement": "relative viability", "setting": "[7]; first compound 0.01 µM", "value": 0.968}, {"measurement": "relative viability", "setting": "[7]; first compound 0.03162 µM", "value": 1.06}, {"measurement": "relative viability", "setting": "[7]; first compound 0.1 µM", "value": 1.04}, {"measurement": "relative viability", "setting": "[7]; first compound 0.3162 µM", "value": 1.04}, {"measurement": "relative viability", "setting": "[7]; first compound 1 µM", "value": 1.04}, {"measurement": "relative viability", "setting": "[8]; first compound 0.01 µM", "value": 0.487}, {"measurement": "relative viability", "setting": "[8]; first compound 0.03162 µM", "value": 0.531}, {"measurement": "relative viability", "setting": "[8]; first compound 0.1 µM", "value": 0.603}, {"measurement": "relative viability", "setting": "[8]; first compound 0.3162 µM", "value": 0.473}, {"measurement": "relative viability", "setting": "[8]; first compound 1 µM", "value": 0.522}, {"measurement": "relative viability", "setting": "[9]; first compound 0.01 µM", "value": 0.707}, {"measurement": "relative viability", "setting": "[9]; first compound 0.1 µM", "value": 0.662}, {"measurement": "relative viability", "setting": "[9]; first compound 0.3162 µM", "value": 0.671}, {"measurement": "relative viability", "setting": "[9]; first compound 1 µM", "value": 0.691}, {"measurement": "relative viability", "setting": "[10]; first compound 0.01 µM", "value": 1.11}, {"measurement": "relative viability", "setting": "[10]; first compound 0.03162 µM", "value": 1.03}, {"measurement": "relative viability", "setting": "[10]; first compound 0.1 µM", "value": 1.06}, {"measurement": "relative viability", "setting": "[10]; first compound 0.3162 µM", "value": 0.997}, {"measurement": "relative viability", "setting": "[10]; first compound 1 µM", "value": 0.968}, {"measurement": "relative viability", "setting": "[11]; first compound 0.03162 µM", "value": 0.831}, {"measurement": "relative viability", "setting": "[11]; first compound 0.1 µM", "value": 0.775}, {"measurement": "relative viability", "setting": "[11]; first compound 0.3162 µM", "value": 0.756}, {"measurement": "relative viability", "setting": "[11]; first compound 1 µM", "value": 0.75}, {"measurement": "relative viability", "setting": "[12]; first compound 0.01 µM", "value": 0.793}, {"measurement": "relative viability", "setting": "[12]; first compound 0.03162 µM", "value": 0.783}, {"measurement": "relative viability", "setting": "[12]; first compound 0.1 µM", "value": 0.811}, {"measurement": "relative viability", "setting": "[12]; first compound 0.3162 µM", "value": 0.849}, {"measurement": "relative viability", "setting": "[12]; first compound 1 µM", "value": 0.813}, {"measurement": "relative viability", "setting": "[13]; first compound 0.01 µM", "value": 0.835}, {"measurement": "relative viability", "setting": "[13]; first compound 0.03162 µM", "value": 0.973}, {"measurement": "relative viability", "setting": "[13]; first compound 0.1 µM", "value": 0.925}, {"measurement": "relative viability", "setting": "[13]; first compound 0.3162 µM", "value": 0.717}, {"measurement": "relative viability", "setting": "[13]; first compound 1 µM", "value": 0.954}, {"measurement": "relative viability", "setting": "[14]; first compound 0.01 µM", "value": 0.331}, {"measurement": "relative viability", "setting": "[14]; first compound 0.03162 µM", "value": 0.32}, {"measurement": "relative viability", "setting": "[14]; first compound 0.1 µM", "value": 0.272}, {"measurement": "relative viability", "setting": "[14]; first compound 0.3162 µM", "value": 0.308}, {"measurement": "relative viability", "setting": "[14]; first compound 1 µM", "value": 0.302}, {"measurement": "relative viability", "setting": "[15]; first compound 0.01 µM", "value": 0.662}, {"measurement": "relative viability", "setting": "[15]; first compound 0.03162 µM", "value": 0.843}, {"measurement": "relative viability", "setting": "[15]; first compound 0.1 µM", "value": 0.69}, {"measurement": "relative viability", "setting": "[15]; first compound 0.3162 µM", "value": 0.735}, {"measurement": "relative viability", "setting": "[15]; first compound 1 µM", "value": 0.67}, {"measurement": "relative viability", "setting": "[16]; first compound 0.01 µM", "value": 0.775}, {"measurement": "relative viability", "setting": "[16]; first compound 0.03162 µM", "value": 0.774}, {"measurement": "relative viability", "setting": "[16]; first compound 0.1 µM", "value": 0.755}, {"measurement": "relative viability", "setting": "[16]; first compound 0.3162 µM", "value": 0.744}, {"measurement": "relative viability", "setting": "[16]; first compound 1 µM", "value": 0.764}, {"measurement": "relative viability", "setting": "[17]; first compound 0.01 µM", "value": 0.218}, {"measurement": "relative viability", "setting": "[17]; first compound 0.03162 µM", "value": 0.216}, {"measurement": "relative viability", "setting": "[17]; first compound 0.1 µM", "value": 0.196}, {"measurement": "relative viability", "setting": "[17]; first compound 0.3162 µM", "value": 0.202}, {"measurement": "relative viability", "setting": "[17]; first compound 1 µM", "value": 0.219}, {"measurement": "relative viability", "setting": "[18]; first compound 0.01 µM", "value": 0.384}, {"measurement": "relative viability", "setting": "[18]; first compound 0.03162 µM", "value": 0.327}, {"measurement": "relative viability", "setting": "[18]; first compound 0.1 µM", "value": 0.397}, {"measurement": "relative viability", "setting": "[18]; first compound 0.3162 µM", "value": 0.379}, {"measurement": "relative viability", "setting": "[18]; first compound 1 µM", "value": 0.412}, {"measurement": "relative viability", "setting": "[19]; first compound 0.01 µM", "value": 0.906}, {"measurement": "relative viability", "setting": "[19]; first compound 0.03162 µM", "value": 0.915}, {"measurement": "relative viability", "setting": "[19]; first compound 0.1 µM", "value": 0.895}, {"measurement": "relative viability", "setting": "[19]; first compound 0.3162 µM", "value": 0.94}, {"measurement": "relative viability", "setting": "[19]; first compound 1 µM", "value": 1.15}, {"measurement": "relative viability", "setting": "[20]; first compound 0.01 µM", "value": 0.555}, {"measurement": "relative viability", "setting": "[20]; first compound 0.03162 µM", "value": 0.735}, {"measurement": "relative viability", "setting": "[20]; first compound 0.1 µM", "value": 0.715}, {"measurement": "relative viability", "setting": "[20]; first compound 0.3162 µM", "value": 0.614}, {"measurement": "relative viability", "setting": "[20]; first compound 1 µM", "value": 0.591}]}
